Test results: ChEMBL document CHEMBL1201862, “PubChem BioAssay data set” (2004)
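Grown in 96-well plates, cells were treated for 48 hours with each compound at five concentrations. Insufficient inhibition: endpoint recorded as highest concentration tested. GI50 marks 50% less growth.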 Active and inactive are the calls of the source. No stated cut-off is given here; in the data, active = GI50 up to about 1.1 µM and inactive = higher.

Legend:
Test in all cases: growth of human tumour cells (NCI), 48 h
MDA-MB-435 = tested on: MDA-MB-435
SN12C = tested on: SN12C
MCF7 = tested on: MCF7
SF-268 = tested on: SF-268
SK-MEL-28 = tested on: SK-MEL-28
A549 = tested on: A549
NCI-H23 = tested on: NCI-H23
786-0 = tested on: 786-0
CAKI-1 = tested on: CAKI-1
SF-539 = tested on: SF-539
OVCAR-4 = tested on: OVCAR-4
SNB-19 = tested on: SNB-19
SK-MEL-5 = tested on: SK-MEL-5
SF-295 = tested on: SF-295
SK-MEL-2 = tested on: SK-MEL-2
TK-10 = tested on: TK-10
OVCAR-3 = tested on: OVCAR-3
NCI-H226 = tested on: NCI-H226
OVCAR-5 = tested on: OVCAR-5
SR = tested on: SR

Structure (SMILES) | GI50 (MDA-MB-435) | GI50 (SN12C) | GI50 (MCF7) | GI50 (SF-268) | GI50 (SK-MEL-28) | GI50 (A549) | GI50 (NCI-H23) | GI50 (786-0) | GI50 (CAKI-1) | GI50 (SF-539) | GI50 (OVCAR-4) | GI50 (SNB-19) | GI50 (SK-MEL-5) | GI50 (SF-295) | GI50 (SK-MEL-2) | GI50 (TK-10) | GI50 (OVCAR-3) | GI50 (NCI-H226) | GI50 (OVCAR-5) | GI50 (SR)
Cc1nc(O)nc2nc3cc(Cl)cc(Cl)c3c(NC(C)(CO)CO)c12 | > 100 µM (inactive) | > 100 µM (inactive) | 1.55 µM (inactive) | 25.7 µM (inactive) | > 100 µM (inactive) | > 100 µM (inactive) | 81.8 µM (inactive) | 15.6 µM (inactive) | 94.6 µM (inactive) | > 100 µM (inactive) | > 100 µM (inactive) | 21.4 µM (inactive) | > 100 µM (inactive) | 30.3 µM (inactive) | 29.1 µM (inactive) | 27.4 µM (inactive) | > 100 µM (inactive) | > 100 µM (inactive) |  | 
N#Cc1c(CC(=O)O)cc(=O)n2c1[nH]c1ccccc12 |  | > 100 µM (inactive) |  | > 100 µM (inactive) | > 100 µM (inactive) | > 100 µM (inactive) | > 100 µM (inactive) | > 100 µM (inactive) | > 100 µM (inactive) | > 100 µM (inactive) | > 100 µM (inactive) | > 100 µM (inactive) | > 100 µM (inactive) | > 100 µM (inactive) | > 100 µM (inactive) | > 100 µM (inactive) | > 100 µM (inactive) | > 100 µM (inactive) | > 100 µM (inactive) | > 100 µM (inactive)
C(=N\OCCc1ccccc1)/c1cccnc1 | > 100 µM (inactive) | > 100 µM (inactive) | > 100 µM (inactive) | > 100 µM (inactive) | > 100 µM (inactive) | > 100 µM (inactive) | > 100 µM (inactive) | > 100 µM (inactive) |  | > 100 µM (inactive) | > 100 µM (inactive) | > 100 µM (inactive) | > 100 µM (inactive) | > 100 µM (inactive) | > 100 µM (inactive) | > 100 µM (inactive) | > 100 µM (inactive) | > 100 µM (inactive) | > 100 µM (inactive) | 
OC(CCN1CCCCC1)(c1ccccc1)c1ccccc1 [PRIDINOL] | 82.8 µM (inactive) | > 100 µM (inactive) | > 100 µM (inactive) | > 100 µM (inactive) | > 100 µM (inactive) | > 100 µM (inactive) | > 100 µM (inactive) | > 100 µM (inactive) | > 100 µM (inactive) |  |  | > 100 µM (inactive) | 82.8 µM (inactive) | > 100 µM (inactive) | > 100 µM (inactive) | > 100 µM (inactive) | > 100 µM (inactive) |  | > 100 µM (inactive) | 
c1ccc(C2CC(NC3CCCCC3)=Nc3ccccc3N2)cc1 (stereo unspecified) | 24.3 µM (inactive) | > 100 µM (inactive) |  | 65.3 µM (inactive) | 45.2 µM (inactive) | > 100 µM (inactive) | 54.1 µM (inactive) | > 100 µM (inactive) | 98.9 µM (inactive) |  | > 100 µM (inactive) | > 100 µM (inactive) | 18.7 µM (inactive) | 44 µM (inactive) | > 100 µM (inactive) | > 100 µM (inactive) | > 100 µM (inactive) | > 100 µM (inactive) | 78.2 µM (inactive) | 
[O-][Cl+3]([O-])([O-])[O-].c1ccc(-c2csc3c4ccccc4c4ccccc4[n+]23)cc1 |  | 1.65 µM (inactive) |  | 2.34 µM (inactive) | 2.7 µM (inactive) | 2.17 µM (inactive) | 0.553 µM (active) | 4.85 µM (inactive) | 7.5 µM (inactive) | 3.25 µM (inactive) | 3.96 µM (inactive) | 2.15 µM (inactive) | 0.971 µM (active) | 1.14 µM (inactive) | 2.54 µM (inactive) | 13.6 µM (inactive) | 0.897 µM (active) | 3.1 µM (inactive) | 14.3 µM (inactive) | 4.99 µM (inactive)
CN1C(=O)CC(c2cccc(C3CC(=O)N(C)C3=O)n2)C1=O (stereo unspecified) |  | > 100 µM (inactive) |  | > 100 µM (inactive) | > 100 µM (inactive) | > 100 µM (inactive) | > 100 µM (inactive) | > 100 µM (inactive) | > 100 µM (inactive) | > 100 µM (inactive) | > 100 µM (inactive) | > 100 µM (inactive) | > 100 µM (inactive) | > 100 µM (inactive) | > 100 µM (inactive) | > 100 µM (inactive) | > 100 µM (inactive) | > 100 µM (inactive) | > 100 µM (inactive) | > 100 µM (inactive)
C=C(C)C1CC=C(C)C(O)([C@@]2(O)C[C@H](C(=C)C)CC=C2C)C1 (stereo partly specified) |  | 18.3 µM (inactive) |  | 29.9 µM (inactive) | 28.3 µM (inactive) | 29.7 µM (inactive) | 17.3 µM (inactive) | 16.8 µM (inactive) | 13.5 µM (inactive) | 19.8 µM (inactive) | 19 µM (inactive) | 32.1 µM (inactive) | 14.8 µM (inactive) | 18.9 µM (inactive) | 17.4 µM (inactive) | 33.3 µM (inactive) | 13.4 µM (inactive) | > 10 µM (inactive) | 24.5 µM (inactive) | 21.7 µM (inactive)
